Among the data in patent US9802941B2, “Compounds and methods for inhibiting histone demethylases” (Gilead Sciences, Inc., priority 2014, dated 2017) are IC50 values, retold here.

Where two headings read alike, the source gives them in different places.

What all share (format): biochemical
Assay [1] concerns the target T1, KDM4C (JMJD2C) (Homo sapiens, UniProt Q9H3R0).
T1 construct: KDM4C; BRIC, Denmark; 1-349; E. coli; host or cells: E. coli
T1 sequence (Q9H3R0 1-349): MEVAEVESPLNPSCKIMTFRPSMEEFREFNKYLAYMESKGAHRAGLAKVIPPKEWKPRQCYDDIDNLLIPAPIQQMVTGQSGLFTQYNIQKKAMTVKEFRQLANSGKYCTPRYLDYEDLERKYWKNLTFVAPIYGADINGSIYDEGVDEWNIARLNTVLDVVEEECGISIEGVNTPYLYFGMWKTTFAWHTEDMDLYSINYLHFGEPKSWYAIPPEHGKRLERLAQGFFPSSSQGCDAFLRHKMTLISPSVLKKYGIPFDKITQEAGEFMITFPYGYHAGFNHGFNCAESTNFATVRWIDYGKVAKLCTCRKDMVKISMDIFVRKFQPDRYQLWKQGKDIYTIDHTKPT
Nature of the assay: Histone lysine demethylase AlphaLISA assay, KDM4C. In outline: (§1)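 Buffer: 50 mM Hepes pH 7.4-8.0, Tween-20, 0.1% BSA, 5 μM ammonium iron(II) sulfate. Enzyme + compound (DMSO) 10 min, then substrate at RT; acceptor and streptavidin donor beads added, dark incubation, AlphaLISA read.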
In general terms: In Alpha technology, singlet oxygen from a donor bead excites a nearby acceptor bead.

Assay [2] deals with T2, KDM5B (PLU-1) (Homo sapiens, UniProt Q9UGL1).
T2 construct: BRIC; 1-809; E. coli; host or cells: E. coli
T2 sequence (Q9UGL1 1-809): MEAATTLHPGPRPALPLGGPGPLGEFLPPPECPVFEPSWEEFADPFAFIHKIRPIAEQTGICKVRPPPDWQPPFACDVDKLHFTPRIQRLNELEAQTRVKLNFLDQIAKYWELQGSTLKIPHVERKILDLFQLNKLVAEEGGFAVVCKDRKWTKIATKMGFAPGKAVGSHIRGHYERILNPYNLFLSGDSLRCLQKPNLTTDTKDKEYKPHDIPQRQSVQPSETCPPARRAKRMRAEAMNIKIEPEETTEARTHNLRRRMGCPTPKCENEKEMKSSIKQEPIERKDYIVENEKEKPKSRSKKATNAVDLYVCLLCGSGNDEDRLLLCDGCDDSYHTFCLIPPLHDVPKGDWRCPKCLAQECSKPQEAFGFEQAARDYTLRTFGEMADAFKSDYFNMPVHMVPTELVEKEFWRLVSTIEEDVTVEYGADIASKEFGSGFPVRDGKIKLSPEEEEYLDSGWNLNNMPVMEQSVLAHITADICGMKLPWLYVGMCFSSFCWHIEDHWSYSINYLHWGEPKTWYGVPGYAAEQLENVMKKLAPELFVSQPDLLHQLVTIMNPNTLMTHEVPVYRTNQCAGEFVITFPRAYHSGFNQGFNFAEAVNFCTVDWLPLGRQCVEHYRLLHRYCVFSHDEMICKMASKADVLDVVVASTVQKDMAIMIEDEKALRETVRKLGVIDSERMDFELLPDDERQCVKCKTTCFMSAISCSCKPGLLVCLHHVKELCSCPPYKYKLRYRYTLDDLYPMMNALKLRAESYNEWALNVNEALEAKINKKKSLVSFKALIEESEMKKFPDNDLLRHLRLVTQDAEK
Description: Histone lysine demethylase AlphaLISA assay, KDM5B. An outline of the steps:
as §1

In assay [3] the target is T3, KDM6A (UTX) (Homo sapiens, UniProt O15550).
T3 construct: KDM6A (UTX); BRIC; 919-1401; E. coli; host or cells: E. coli
T3 sequence (O15550 919-1401): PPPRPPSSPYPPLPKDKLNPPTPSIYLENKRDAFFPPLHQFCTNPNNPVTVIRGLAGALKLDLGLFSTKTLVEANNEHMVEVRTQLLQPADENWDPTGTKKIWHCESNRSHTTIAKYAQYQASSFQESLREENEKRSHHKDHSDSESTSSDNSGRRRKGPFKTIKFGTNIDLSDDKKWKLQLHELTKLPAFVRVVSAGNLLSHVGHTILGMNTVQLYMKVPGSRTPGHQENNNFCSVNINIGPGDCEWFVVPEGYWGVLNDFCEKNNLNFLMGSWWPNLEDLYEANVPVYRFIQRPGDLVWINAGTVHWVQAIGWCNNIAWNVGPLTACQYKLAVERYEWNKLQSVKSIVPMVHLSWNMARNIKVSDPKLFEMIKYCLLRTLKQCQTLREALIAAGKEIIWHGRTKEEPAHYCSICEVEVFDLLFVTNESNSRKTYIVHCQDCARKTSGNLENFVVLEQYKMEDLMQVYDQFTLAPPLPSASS
Description: Histone lysine demethylase AlphaLISA assay, KDM6A. As to the method:
The compounds of the application, or a pharmaceutically acceptable salt, or solvate, or prodrug thereof, are tested in an in vitro AlphaLISA assay. Enzymes are dissolved in enzyme buffer and incubated before they are added to DMSO solutions of compounds of the application, or a pharmaceutically acceptable salt, or solvate, or prodrug thereof, in enzyme buffer. The reaction mixture is then incubated for an additional period of time before substrate solution is added and then the resulting mixture again incubated. Acceptor beads and suspended Epigenetic Buffer from stock are added and the suspension is again incubated before a suspension of streptavidin donor beads in Epigenetic Buffer is added. After an additional period of incubation, the plates are read.
The ability of compounds of the application to inhibit the histone lysine demethylase activity in vitro of different enzymes was determined.
The reaction mixture was incubated for another 10 minutes before 5 μL of substrate solution was added and the resulting mixture was then incubated at room temperature. […] After incubation at room temperature in the dark, the plates were read.
Enzyme Buffer: 50 mM Hepes (pH 7.4-8.0), 0.003-0.01% Tween-20, 0.1% BSA; 5 μM (NH4)2Fe(SO4)2.

Assay [4] deals with T4, PHF8 (KDM7) (Homo sapiens, UniProt Q9UPP1).
T4 construct: KDM7 (PHF8); BRIC; 1-1322; Bac
T4 sequence (Q9UPP1 37-440 limits assumed): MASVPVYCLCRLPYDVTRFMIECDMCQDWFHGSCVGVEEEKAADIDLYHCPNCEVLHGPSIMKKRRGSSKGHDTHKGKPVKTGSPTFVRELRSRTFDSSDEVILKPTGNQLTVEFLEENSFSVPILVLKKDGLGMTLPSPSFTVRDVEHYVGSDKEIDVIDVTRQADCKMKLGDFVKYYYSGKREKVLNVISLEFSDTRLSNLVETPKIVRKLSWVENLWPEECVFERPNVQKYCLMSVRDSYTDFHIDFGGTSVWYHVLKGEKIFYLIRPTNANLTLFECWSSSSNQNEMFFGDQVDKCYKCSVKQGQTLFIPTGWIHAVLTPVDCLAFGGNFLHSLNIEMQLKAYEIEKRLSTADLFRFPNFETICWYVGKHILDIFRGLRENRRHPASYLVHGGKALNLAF
Description: Histone lysine demethylase AlphaLISA assay, PHF8. In outline: as §1

Assay [5] addresses T5, KDM2B (FBXL10) (Homo sapiens, UniProt Q8NHM5).
T5 construct: KDM2B; BPS,; 1-650; Bac; purchased BPS Bioscience, US; host or cells: baculovirus system
T5 sequence (Q8NHM5 1-650): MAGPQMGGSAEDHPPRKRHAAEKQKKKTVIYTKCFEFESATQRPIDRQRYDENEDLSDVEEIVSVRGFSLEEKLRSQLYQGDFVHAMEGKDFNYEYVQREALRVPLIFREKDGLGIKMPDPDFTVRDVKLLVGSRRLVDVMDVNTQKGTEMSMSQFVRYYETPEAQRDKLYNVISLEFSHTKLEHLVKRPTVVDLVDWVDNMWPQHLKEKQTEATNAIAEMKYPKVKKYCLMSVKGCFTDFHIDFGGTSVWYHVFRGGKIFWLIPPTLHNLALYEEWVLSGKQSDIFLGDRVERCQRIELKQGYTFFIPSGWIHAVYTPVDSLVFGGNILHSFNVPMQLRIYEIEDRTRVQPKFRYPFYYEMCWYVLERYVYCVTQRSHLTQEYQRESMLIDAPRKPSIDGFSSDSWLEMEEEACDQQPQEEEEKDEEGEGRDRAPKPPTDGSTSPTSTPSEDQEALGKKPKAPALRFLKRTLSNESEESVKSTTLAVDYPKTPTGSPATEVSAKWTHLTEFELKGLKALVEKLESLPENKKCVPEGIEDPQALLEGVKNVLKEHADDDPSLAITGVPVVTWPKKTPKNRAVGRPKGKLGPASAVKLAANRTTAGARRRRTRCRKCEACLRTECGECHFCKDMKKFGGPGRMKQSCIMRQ
Description: Histone lysine demethylase AlphaLISA assay, KDM2B. An outline of the steps: as §1

The mark [6] stands for this setting: AlphaLISA assay, read-out: HDME Inhibition KDM4C (IC50).
Where [7] appears, read: AlphaLISA, in vitro, read-out: HDME Inhibition KDM4C.
Where [8] appears, read: AlphaLISA assay, read-out: HDME Inhibition KDM5B (IC50).
Setting [9] is: AlphaLISA, in vitro, read-out: HDME Inhibition KDM5B.
The mark [10] stands for this setting: AlphaLISA assay, read-out: HDME Inhibition KDM6A (IC50).
The mark [11] stands for this setting: AlphaLISA, in vitro, read-out: HDME Inhibition KDM6A.
Where [12] appears, read: AlphaLISA, in vitro, read-out: HDME Inhibition PHF8.
Where [13] appears, read: AlphaLISA, in vitro, read-out: HDME Inhibition KDM2B.
Setting [14] is: AlphaLISA assay, read-out: HDME Inhibition PHF8 (IC50).

Take `Cc1cc(C(=O)O)cc(CNCc2nc3c(n2Cc2ccc(F)cc2)CCC3)n1` [Compound 25, 2-{[({1-[(4-fluorophenyl)methyl]-1H,4H,5H,6H-cyclopenta[d]imidazol-2-yl}methyl)amino]methyl}-6-methylpyridine-4-carboxylic acid]: the IC50 in assay [1] (setting [6]), in assay [1] (setting [7]), in assay [2] (setting [8]), in assay [2] (setting [9]), in assay [3] (setting [10]) and in assay [3] (setting [11]) was > 10 µM in each case. Besides, the IC50 was 1.21 µM in assay [4] (setting [12]) and 1.13 µM in assay [5] (setting [13]).

For the molecule `CCc1nnc(CNCc2cc(C(=O)O)cc(C)n2)n1Cc1ccc(F)cc1` [Compound 27, 2-{[({5-Ethyl-4-[(4-fluorophenyl)methyl]-4H-1,2,4-triazol-3-yl}methyl)amino]methyl}-6-methylpyridine-4-carboxylic acid], the IC50 in assay [1] (setting [6]), in assay [1] (setting [7]), in assay [2] (setting [8]), in assay [2] (setting [9]), in assay [3] (setting [10]) and in assay [3] (setting [11]) was > 10 µM in each case. The figures for the IC50 in assay [4] (setting [12]) and in assay [5] (setting [13]) were 0.537 µM and 0.158 µM, respectively.

In the case of `C/C=C\c1cnc(CNCc2cc(C(=O)O)cc(C)n2)n1Cc1ccc(F)cc1` [Compound 35, 2-{[({1-[(4-fluorophenyl)methyl]-5-[(1Z)-prop-1-en-1-yl]-1H-imidazol-2-yl}methyl)amino]methyl}-6-methylpyridine-4-carboxylic acid], the IC50 in assay [1] (setting [6]), in assay [1] (setting [7]), in assay [2] (setting [8]), in assay [2] (setting [9]), in assay [3] (setting [10]) and in assay [3] (setting [11]) was > 10 µM in each case. Further, the values for the IC50 in assay [4] (setting [12]) and in assay [5] (setting [13]) were 0.437 µM and 0.117 µM, respectively.

As to `Cc1cc(C(=O)O)cc(CNCc2nccn2CCC(C)C)n1` [Compound 18, 2-methyl-6-[({[1-(3-methylbutyl)-1H-imidazol-2-yl]methyl}amino)methyl]pyridine-4-carboxylic acid], the IC50 in assay [1] (setting [6]), in assay [1] (setting [7]), in assay [2] (setting [8]), in assay [2] (setting [9]), in assay [3] (setting [10]) and in assay [3] (setting [11]) was > 10 µM in each case. The IC50 in assay [4] (setting [12]) came to 3.03 µM; in assay [5] (setting [13]), 3.93 µM.

For `Cc1cc(C(=O)O)cc(CNCCc2ncccc2Br)n1` [Compound 11, 2-({[2-(3-bromopyridin-2-yl)ethyl]amino}methyl)-6-methylpyridine-4-carboxylic acid], the IC50 is > 10 µM in assay [1] (setting [6]); > 10 µM in assay [1] (setting [7]); 5.48 µM in assay [2] (setting [9]); > 10 µM in assay [3] (setting [10]); > 10 µM in assay [3] (setting [11]); 6.93 µM in assay [4] (setting [12]). The IC50 in assay [5] (setting [13]) was 1.54 µM.

Regarding `CCc1cc(C(=O)O)cc(CNCc2nccn2Cc2ccc(F)cc2)n1` [Compound 13, 2-ethyl-6-{[({1-[(4-fluorophenyl)methyl]-1H-imidazol-2-yl}methyl)amino]methyl}pyridine-4-carboxylic acid], the IC50 in assay [1] (setting [6]), in assay [1] (setting [7]), in assay [2] (setting [8]), in assay [2] (setting [9]), in assay [3] (setting [10]) and in assay [3] (setting [11]) was > 10 µM throughout. Moreover, the IC50 was found to be 5.78 µM in assay [4] (setting [12]) and 2.27 µM in assay [5] (setting [13]).

Take `CCCC(C)c1cnc(CNCc2cc(C(=O)O)cc(C)n2)n1Cc1ccc(F)cc1` (centres unmarked) [Compound 10, 2-{[({1-[(4-fluorophenyl)methyl]-5-(pentan-2-yl)-1H-imidazole-2-yl}methyl)amino]methyl}-6-methylpyridine-4-carboxylic acid]: the IC50 in assay [1] (setting [7]) was 1.37 µM; in assay [2] it was 1.28 µM; in assay [3] (setting [10]), > 10 µM; in assay [3] (setting [11]) it was > 10 µM; in assay [4] (setting [14]) it was > 10 µM; in assay [4] (setting [12]), > 10 µM. In addition, the IC50 in assay [5] (AlphaLISA assay, read-out: HDME Inhibition KDM2B (IC50)) was > 10 µM; in assay [5] (setting [13]), > 10 µM.

As to `Cc1cc(C(=O)O)cc(CNCCc2ncccc2-c2ccsc2)n1` [Compound 34, 2-methyl-6-[({2-[3-(thiophen-3-yl)pyridin-2-yl]ethyl}amino)methyl]pyridine-4-carboxylic acid], the IC50 in assay [1] (setting [6]), in assay [1] (setting [7]), in assay [2] (setting [8]), in assay [2] (setting [9]), in assay [3] (setting [10]) and in assay [3] (setting [11]) was > 10 µM throughout. Further, the IC50 in assay [4] (setting [14]) was > 10 µM; in assay [4] (setting [12]), > 10 µM; in assay [5] (setting [13]) it was 1.24 µM.

Take `Cc1cc(C(=O)O)cc(CNCc2nccn2CCc2cncnc2)n1` [Compound 26, 2-methyl-6-{[({1-[2-(pyrimidin-5-yl)ethyl]-1H-imidazol-2-yl}methyl)amino]methyl}pyridine-4-carboxylic acid]: the IC50 is > 10 µM in assay [1] (setting [6]); > 10 µM in assay [1] (setting [7]); 3.02 µM in assay [2]; > 10 µM in assay [3] (setting [10]); > 10 µM in assay [3] (setting [11]); 1.03 µM in assay [4] (setting [12]). Besides, the IC50 in assay [5] (setting [13]) came to 0.565 µM.
